The subject of one data set is Sprague-Dawley rats. As to the kind of experiment: Monocrotaline (MCT) induction of PAH versus vehicle control. The format is in vivo, rat. How it is done: (§1) Animal model of PAH. Male Sprague-Dawley rats (age 12-14 weeks; Charles River Laboratories) were handled in accordance with US National Institutes of Health guidelines, and all procedures were approved by the local committee at Brigham and Women's Hospital, Harvard Medical School. All surgeries were performed under ketamine/xylazine anesthesia. For the monocrotaline (MCT) model of PAH, rats were fed standard chow and treated with a 0.5 ml intraperitoneal injection of MCT (50 mg/ml) (Sigma-Aldrich) or 0.9% saline as control. Rats were randomized to spironolactone (25 mg/kg/d) (Henry Schein) or vehicle added to the drinking water. For the prevention study, treatment with spironolactone began immediately following administration of MCT and continued for 23-25 days until hemodynamic and tissue analyses were performed. For the reversal study, a second experiment was performed in which rats were randomized to spironolactone or vehicle that was initiated 14 days following the administration of MCT and continued until hemodynamic and tissue analyses were performed 10 days later.
(§2) Aldosterone and ET-1 levels. […] In selected experiments, cells were pre-treated for 6 h with BQ-788 (1.5 μM) (Sigma-Aldrich) to inhibit the ETB receptor. Aldosterone levels were measured in the medium of cells grown in phenol-free EGM-2 medium supplemented with charcoal-stripped serum, by enzyme immunoassay according to the manufacturer's instructions (Cayman). Results were standardized to cell protein concentration. Levels of aldosterone and ET-1 from plasma and whole lung tissue were measured by enzyme immunoassay according to the manufacturer's instructions (Cayman).
Echocardiography. Transthoracic two-dimensional, M-mode, and Doppler imaging were performed in rats using a Vevo 2010 ultrasonographic system with a 15-MHz transducer. M-mode and Doppler tracings were acquired at a sweep speed of 200 mm/s following optimization of endocardial visualization and spectral display of Doppler profiles as described previously.^3 M-mode measurements of the right ventricular free-wall thickness were measured in the parasternal short-axis view just below the levels of the aortic valve, as described previously and in accordance to recommendations on M-mode measurement of the RV by the American Society of Echocardiography.^4 All studies were performed by a cardiologist and experienced sonographer who was blinded to the treatment group and was responsible for image analysis.
(§3) Right heart catheterization. An incision was made in the anterior triangle of the right neck, and a dissection was performed to expose the right internal jugular vein. A 0.04×0.023 in.-sized polyvinylchloridine catheter with a curved end was flushed with heparinized saline and connected to a Grass pressure transducer and Grass model 79 polygraph. A 4.0-proline suture was used to achieve hemostasis at the distal end of the jugular vein prior to insertion of the catheter. The tube was advanced and RV systolic pressure was recorded, which was assumed to be equal to PASP in the setting of a normal pulmonic valve.^3 All right heart catheterizations were performed within 10 min of echocardiography and both procedures were completed within 30 min.

Data set [1] relates to rats with SU-5416/hypoxia-induced PAH. Kind of data set: SU-5416/hypoxia-induced PAH, prevention study with eplerenone. The format is in vivo, rat. The settings on record: 21 days. The method, then: (§4) Sections were stained with a Gomori's Trichrome Staining Kit according to the manufacturer's instruction (Fischer Scientific). Image J™ software (NIH) was used to measure the per cent perivascular collagen deposition of muscularized arterioles with a diameter of 20-50 μm by subtracting the area of the lesser curvature from the greater curvature and dividing by the lesser curvature×100. Collagen was also assessed in tissue sections using Picrosirius Red Stain Kit according to the manufacturer's instruction (Polysciences). Lung sections were visualized under polarized light using an Olympus BX51™ microscope and images were acquired by the Picture Taker™ software package.
as §3
(§5) Left heart catheterization and hemodynamics. Following completion of the right heart catheterization, a deep neck dissection was performed to identify the right carotid artery. Without disrupting the carotid sinus or vagus nerve, a cross-clamp was applied to the proximal and distal aspects of the carotid artery. A high fidelity Millar catheter (Millar Instruments, Inc.) was inserted into the carotid artery, the distal clamp was released, and the catheter was advanced past the aortic arch to record central aortic blood pressure. The catheter was then advanced across the aortic valve and left ventricular end-diastolic pressure (LVEDP) were recorded. Cardiac index (CI) was derived from pressure-volume loop analysis as described previously.^5 The pulmonary vascular resistance index was calculated as [(mean pulmonary artery pressure-LVEDP)/CI)] and systemic vascular resistance index was calculated as [(mean arterial pressure-mean right atrial pressure)/CI].

In data set [2] the test system is HPAECs. As to the kind of experiment: Aldosterone levels in HPAEC culture medium by enzyme immunoassay. The format is cell-based, human. The settings on record: pioglitazone 50 μM, 24 h.
Data set [3] relates to Sprague-Dawley rats with MCT-induced PAH. Kind of data set: MCT model of PAH, prevention study (spironolactone started at time of MCT injection). The format is in vivo, rat. The method, then: as §1, §2
NO. metabolites. Nitrite (NO2^−) and nitrate (NO3^−) were measured in cell culture medium containing 2% fetal bovine serum and L-arginine (1 mmol/l) (Sigma-Aldrich) by 1(H)-naphthotriazole fluorescence (Cayman) as previously reported.^1 To measure NO2^− levels in whole lung tissue, lung specimens were harvested from rats and snap frozen in liquid nitrogen. Samples were thawed, homogenized in PBS (pH 7.4), and centrifuged at 14,000×g at 4° C. for 20 min. The supernatant was ultrafiltered using a 30 kDa molecular weight filter (Millpore), and the eluant was used to measure NO2^− levels according to manufacturer's instructions (Cayman).
Lung tissue histology. Rat lung vessels were perfused with saline through the pulmonary artery and inflated with 10% phosphate-buffered formalin at a pressure of 20 cm H2O through the trachea as described previously.^2 After fixation for 24 h at 4° C., the lung tissue was processed and embedded in paraffin using a Hypercenter™ XP System and Embedding Center (Shandon, Pittsburg, Pa.). The paraffin-embedded lung tissue was cut into 5-μm sections. Hematoxylin and eosin staining was performed according to methods published previously.^3 The 3,3′-diaminobenzidine substrate method was used for smooth muscle α-actin immunohistochemical staining. The number of muscularized arteries with a diameter of 20-50 μm located distal to terminal bronchioles were counted in 20 consecutive fields (100×) per section,^2 and the cross-sectional area was assessed using Image J™ software (NIH).
as §4
Echocardiography. […]

Data set [4] shares this test system. As to the kind of experiment: MCT model of PAH, reversal study (spironolactone started 14 days after MCT). The format is in vivo, rat. The method, then:
as §1, §4, §3, §5

For data set [5], the system named is HPAECs. As to the kind of experiment: Amplex Red assay of hydrogen peroxide levels in HPAECs. Format: cell-based, human. The conditions noted are these: aldosterone-treated HPAECs coincubated with spironolactone (10 μM), 24 h; n=3.
Method: Human pulmonary artery endothelial cells (HPAECs) (Lonza) (male donors) were grown to confluence using phenol-free EGM-2 medium supplemented with 5% fetal bovine serum at 37° C., 5% CO2. Cells were passaged twice-weekly using 0.5% trypsin/EDTA, and experiments were performed on cells from passages 4-10. Aldosterone (Steraloids) and ET-1 (1-100 nM) (Sigma-Aldrich) were dissolved in dimethylsufloxide (10 nmol/L) and deoxygenated water, respectively, which served as vehicle controls. Cells were treated with aldosterone (10^−−10^−7 mol/L) for 24 h and in selected experiments co-incubated with the mineralocorticoid receptor inhibitor spironolactone (10 μM/l) (Sigma-Aldrich).
Data set [6] deals with ETB-dependent NO. generation in HPAECs. As to the kind of experiment: NO. metabolites (NO2−, NO3−) in ET-1-stimulated HPAECs. Format: cell-based, human.
Method: Cell culture and treatments. Human pulmonary artery endothelial cells (HPAECs) (Lonza) (male donors) were grown to confluence using phenol-free EGM-2 medium supplemented with 5% fetal bovine serum at 37° C., 5% CO2. Cells were passaged twice-weekly using 0.5% trypsin/EDTA, and experiments were performed on cells from passages 4-10. Aldosterone (Steraloids) and ET-1 (1-100 nM) (Sigma-Aldrich) were dissolved in dimethylsufloxide (10 nmol/L) and deoxygenated water, respectively, which served as vehicle controls. Cells were treated with aldosterone (10^−−10^−7 mol/L) for 24 h and in selected experiments co-incubated with the mineralocorticoid receptor inhibitor spironolactone (10 μM/l) (Sigma-Aldrich).
[7] abbreviates: rats with MCT-induced PAH vs vehicle.
The mark [8] stands for this setting: rats with MCT-induced PAH vs vehicle, 25 days.
Setting [9] is: spironolactone 25 mg/kg/d in MCT-PAH rats.
[10] abbreviates: spironolactone 25 mg/kg/d from day 14.

`C[C@H]1C(=O)O[C@@H]2CCN3CC=C(COC(=O)[C@](C)(O)[C@]1(C)O)[C@H]23` [MCT, monocrotaline]: the “increase in plasma ET-1 levels” value with Sprague-Dawley rats (MCT rat model of PAH) is recorded as 3 fold. Further, the “right ventricular (RV) free-wall thickness” value in the data set on Sprague-Dawley rats (MCT-treated rats vs vehicle control 0.58±0.05, n=6) turned out to be 1.1±0.05 mm. For the same molecule, the “pulmonary artery systolic pressure (PASP)” value in the data set on Sprague-Dawley rats (MCT-treated rats vs vehicle control 28.3±2.7, right heart catheterization, n=6) is on record as 89.3±5.3 mm Hg. Besides, in the data set with Sprague-Dawley rats (MCT-treated rats vs vehicle control 35.4±2.6, echocardiography, n=6), the “pulmonary artery (PA) flow acceleration time (PAAT)” value amounted to 14.1 ± 1.2 ms. Besides, in the data set with Sprague-Dawley rats (setting [7]), the “increase in aldosterone levels in lung tissue” value stood at 172% and the “increase in aldosterone levels in plasma” value was 406%. Moreover, in the data set on Sprague-Dawley rats (setting [8]), the “increase in ET-1 levels in lung homogenates” value was determined as 174% and the “increase in ET-1 levels in plasma” value was 286%.

Consider `COC(=O)[C@@H]1CC2=CC(=O)CC[C@]2(C)[C@@]23O[C@@H]2C[C@@]2(C)[C@@H](CC[C@@]24CCC(=O)O4)[C@H]13` [eplerenone], for which the “decrease in perivascular collagen” value in data set [1] (eplerenone 0.6 mg/1 gm standard chow, n=5) is given as 67%. In data set [1] (eplerenone in chow), the CI entry is on record as “without significantly influencing”, the LVEDP entry is given as “without significantly influencing”, the MAP entry is “without significantly influencing” and the SVRi result is “without significantly influencing”. Also, in data set [1] (eplerenone in chow), the body weight entry was “without significantly influencing” and the heart rate entry was “without significantly influencing”. Moreover, in data set [1] (eplerenone in chow, vs SU-5416/hypoxia 64.6±21.4, p=0.18, n=3-4), the PVRi amounted to 43.9±8.7 mm Hg*min*gm/ml. The molecule also gave a PASP in data set [1] (eplerenone in chow, vs SU-5416/hypoxia 80.5±4.9, p=0.048, n=5) of 61.5±6.5 mm Hg.

On to `CCc1ccc(CCOc2ccc(CC3SC(=O)NC3=O)cc2)nc1` (centres unmarked) [pioglitazone], for which the “increase in aldosterone levels compared to V” value in the data set with HPAECs [2] amounted to 365%.

Regarding `CC(=O)S[C@@H]1CC2=CC(=O)CC[C@]2(C)[C@H]2CC[C@@]3(C)[C@@H](CC[C@@]34CCC(=O)O4)[C@H]12` [spironolactone], in data set [3] (setting [9]), the body weight entry is “without significantly decreasing plasma ET-1 levels or influencing”, the “left ventricular end-diastolic pressure (LVEDP)” value is recorded as “without significantly decreasing plasma ET-1 levels or influencing”, the “mean arterial pressure (MAP)” value is given as “without significantly decreasing plasma ET-1 levels or influencing” and the “plasma ET-1 levels” value is “without significantly decreasing”. Further, the PASP in data set [3] (spironolactone 25 mg/kg/d in drinking water, 23-25 days, vs V-treated PAH 89.3±5.2, n=6) came out at 69.5±5.4 mm Hg. Also, in data set [3] (spironolactone 25 mg/kg/d vs V-treated rats with PAH, n=4), the “decrease in perivascular collagen deposition (Gomori's trichrome)” value is recorded as 77%. Further, the RV weight in data set [3] (spironolactone 25 mg/kg/d, vs V-treated PAH 0.43±0.07, p=0.32, n=5) was 0.35±0.04 RV weight/LV septum weight. This molecule also showed an RV free-wall thickness in data set [3] (spironolactone 25 mg/kg/d, vs V-treated PAH 1.07±0.05, n=6) of 0.86±0.03 mm. Also, the PAAT in data set [3] (spironolactone 25 mg/kg/d, vs V-treated PAH 14.1±1.2, n=6) was found to be 22.3 ± 2.2 ms. Also, in data set [3] (spironolactone 25 mg/kg/d, vs V-treated PAH 14.3±0.7, n=5), the “cross-sectional luminal area of vessels” value is 35.4±1.9 % cross sectional area. For the same molecule, the “number of α-actin-stained muscularized distal pulmonary arterioles” value in data set [3] (spironolactone 25 mg/kg/d, vs V-treated PAH 77.7±6.3, n=5) is 59.7±0.4 muscularized pulmonary arterioles/20 high powered fields. Besides, the “nitrite (NO2^−) in lung tissue specimens” value in data set [3] (spironolactone 25 mg/kg/d, vs V-treated PAH 506±86, n=4) is reported as 759±55 μM/μg protein. In addition, in data set [4] (setting [10]), the LVEDP entry was “without changes”, the MAP entry was “without changes”, the “cardiac index (CI)” value was “without changes” and the heart rate entry is recorded as “without changes”. Moreover, in data set [4] (setting [10]), the “indexed systemic vascular resistance (SVRi)” value is “without changes”. Besides, the “indexed pulmonary vascular resistance (PVRi)” value in data set [4] (spironolactone 25 mg/kg/d from day 14, vs V-treated PAH 35.9±3.2, n=4) stood at 21.5±3.2 mm Hg*min*g/ml. The PASP in data set [4] (spironolactone 25 mg/kg/d from day 14, vs V-treated PAH 60.3±5.2, n=6) was determined as 39.5±4.1 mm Hg. The “decrease in levels of perivascular collagen” value in data set [4] (spironolactone 25 mg/kg/d from day 14 for 10 days vs V-treated PAH, n=6) was determined as 71%. Further, the “abrogation of aldosterone-induced H2O2 accumulation” value with HPAECs [5] came out at 56%. The “NO2^− levels in aldosterone-treated, ET-1-stimulated cells” value in data set [6] (coincubation with spironolactone 10 μM, HPAECs) is reported as “restored”. Further, the “increase in NOx levels” value in data set [6] (spironolactone coincubation in aldosterone-treated cells stimulated with ET-1, n=3) is on record as 87%.

For the origin of these results see patent US9605047B2, “Compositions and methods for treating hypertension” (The Brigham and Women's Hospital, Inc., priority 2012, dated 2017).
